{"source": "patent US4550186A", "about": "“Binuclear copper (II) carboxylates formed from amine-carboxyboranes” (Duke University, priority 1983, dated 1985)", "target": "T1, ATP Dependent Citrate Lyase (Mus musculus, UniProt Q91V92)", "T1 construct": "10% homogenates of CF1 male mouse liver; from tissue; host or cells: CF1 male mouse liver, 10% homogenate", "T1 sequence (Q91V92 1-1091)": "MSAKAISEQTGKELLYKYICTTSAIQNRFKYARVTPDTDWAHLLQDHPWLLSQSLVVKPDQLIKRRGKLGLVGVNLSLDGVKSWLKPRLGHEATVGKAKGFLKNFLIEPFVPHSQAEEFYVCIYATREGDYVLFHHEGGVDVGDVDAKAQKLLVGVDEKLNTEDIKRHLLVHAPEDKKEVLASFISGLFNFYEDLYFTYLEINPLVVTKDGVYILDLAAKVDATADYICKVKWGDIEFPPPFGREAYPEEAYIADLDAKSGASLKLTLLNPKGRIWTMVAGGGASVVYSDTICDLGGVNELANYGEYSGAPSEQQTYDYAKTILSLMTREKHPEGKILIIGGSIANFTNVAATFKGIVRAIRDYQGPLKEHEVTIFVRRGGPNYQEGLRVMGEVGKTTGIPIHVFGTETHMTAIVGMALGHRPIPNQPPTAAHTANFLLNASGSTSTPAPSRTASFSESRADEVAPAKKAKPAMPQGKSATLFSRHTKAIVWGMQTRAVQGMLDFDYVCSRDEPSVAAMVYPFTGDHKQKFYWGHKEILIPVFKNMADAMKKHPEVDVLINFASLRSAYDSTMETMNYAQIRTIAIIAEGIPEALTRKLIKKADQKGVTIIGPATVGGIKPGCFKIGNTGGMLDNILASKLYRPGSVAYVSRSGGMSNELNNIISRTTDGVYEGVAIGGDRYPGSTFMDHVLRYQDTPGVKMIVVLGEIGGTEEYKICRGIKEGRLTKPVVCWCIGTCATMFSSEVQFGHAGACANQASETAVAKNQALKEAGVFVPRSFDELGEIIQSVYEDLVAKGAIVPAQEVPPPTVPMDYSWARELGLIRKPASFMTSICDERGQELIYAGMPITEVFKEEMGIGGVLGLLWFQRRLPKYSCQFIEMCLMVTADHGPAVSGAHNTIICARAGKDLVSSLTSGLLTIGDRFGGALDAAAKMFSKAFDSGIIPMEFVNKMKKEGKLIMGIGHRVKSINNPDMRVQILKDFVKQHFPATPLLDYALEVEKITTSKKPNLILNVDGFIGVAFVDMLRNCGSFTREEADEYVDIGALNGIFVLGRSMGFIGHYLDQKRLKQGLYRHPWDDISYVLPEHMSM", "assay": "In vitro liver enzyme study: ATP dependent citrate lyase", "assay_type": "biochemical", "conditions": "in vitro CF1 liver, 30 min", "method": "In vitro enzymatic studies were determined using 10% homogenates of CF1 male mouse liver with 50-200 μM of test drugs. In vivo enzymatic studies were determined using 10% homogenates of liver from CF1 male mice obtained after administering the agents for 16 days at a dose ranging from 2.5-20 mg/kg/day intraperitoneally. The liver homogenates for both in vitro and in vivo studies were prepared in 0.25M sucrose and 0.001M (ethylenedinitrilo)tetraacetic acid. Acetyl coenzyme A synthetase and adenosine triphosphate dependent citrate lyase activities were determined spectrophotometrically at 540 nm as the hydroxylamate of acetyl coenzyme A formed after 30 min at 37° C. Mitochondrial citrate exchange was determined by the procedure of Robinson et al [Eur. J. Biochem., 216, 63 (1970)] using ^14 C-sodium bicarbonate (41 mCi/mmol) incorporated into mitochondrial ^14 C-citrate after isolating rat mitochondria (9000 g×10 min) from the homogenates. The exchanges of the ^14 C-citrate were determined after incubating the mitochondrial fraction which was loaded with labeled citrate and test drugs for 10 min. Then the radioactivity was measured in the mitochondrial and supernantant fractions in scintillation fluid and expressed as a percentage. Cholesterol side chain oxidation was determined by the method of Kritchevsky and Tepper [Artherosclerosis, 18, 93 (1973)] using (26-^14 C) cholesterol (50 mCi/mmol) and mitochondria isolated from rat liver homogenates. […] Fatty acid synthetase activity was determined by the method of Brady et al [J. Biol. Chem., 235, 3093 (1960)] using [2-^14 C] malonyl-coenzyme A (37.5 mCi/mmol) which was incorporated into newly synthesized fatty acids that were extracted with ether and counted. Acyl transferase activity was determined with glycerol-3phosphate [L-2-^3 H(N)] […] HCl and counted. Phosphatidate phosphohydrolase activity was measured as the inorganic phosphate released after 30 min from phosphatidic acid by the method of Mavis et al [J. Lipid Res., 19, 467 (1978)]. […]", "data": [{"substance": "{Cu[(CH3)3 N.BH2 CO2 ]2.(CH3)3 N.BH2 COOH} [Compound I]", "values": [{"measurement": "ATP Dependent Citrate Lyase", "setting": "50 μM", "result": "110 ± 6", "unit": "Percent Control"}, {"measurement": "ATP Dependent Citrate Lyase", "setting": "100 μM", "result": "98 ± 5", "unit": "Percent Control"}, {"measurement": "ATP Dependent Citrate Lyase", "setting": "200 μM", "result": "105 ± 7", "unit": "Percent Control"}]}]}
